Measurements: PMC6332545, “Biochemical properties and subcellular localization of six members of the HXK family in maize and its metabolic contribution to embryo germination” (BMC Plant Biology, 2019)

Assays:
Assay type in all cases: biochemical
ZmHXK5Δ30 [1] = target: T1, ZmHXK5Δ30 (Zea mays, UniProt A0A1D6MAK9); experiment: coupled G6PDH/NADP+ assay, A340; conditions: 2 mM MgCl2, pH 8.0
T1 construct: N-terminal mitochondrial anchor deleted (87 nucleotides after the start codon, first 30 residues); E. coli BL21-CodonPlus(DE3)-RIL
From the text: coupled G6PDH/NADP+ assay, A340 on ZmHXK5Δ30

ZmHXK6Δ30 [2] = target: T2, ZmHXK6Δ30 (Zea mays, UniProt A0A1D6NCX2); experiment: coupled G6PDH/NADP+ assay, A340; conditions: 2 mM MgCl2, pH 8.0
T2 construct: gene LOC103651223; N-terminal mitochondrial anchor deleted (87 nucleotides after the start codon, first 30 residues); E. coli BL21-CodonPlus(DE3)-RIL
From the text: coupled G6PDH/NADP+ assay, A340 on ZmHXK6Δ30

ZmHXK4Δ30 [3] = target: T3, ZmHXK4Δ30 (Zea mays, UniProt K7VX77); experiment: coupled G6PDH/NADP+ assay, A340; conditions: 2 mM MgCl2, pH 8.0
T3 construct: gene LOC542510; N-terminal mitochondrial anchor deleted (87 nucleotides after the start codon, first 30 residues); E. coli BL21-CodonPlus(DE3)-RIL
From the text: coupled G6PDH/NADP+ assay, A340 on ZmHXK4Δ30

ZmHXK8 = target: T4, ZmHXK8 (Zea mays, UniProt B4FB85); experiment: coupled G6PDH/NADP+ assay, A340; conditions: 50 mM Glc, 2 mM ATP, 2 mM MgCl2, pH 8.0; product inhibition; PEP/pyruvate kinase listed in the reaction medium; read-out: ADP
T4 construct: full length, soluble; E. coli BL21-CodonPlus(DE3)-RIL
From the text: coupled G6PDH/NADP+ assay, A340 on ZmHXK8

ZmHXK7 = target: T5, ZmHXK7 (Zea mays, UniProt C0HF79); experiment: coupled G6PDH/NADP+ assay, A340; conditions: 5 mM Glc, 2 mM ATP, 2 mM MgCl2, pH 8.0; product inhibition; PEP/pyruvate kinase listed in the reaction medium; read-out: ADP
T5 construct: full length, soluble; E. coli BL21-CodonPlus(DE3)-RIL
From the text: coupled G6PDH/NADP+ assay, A340 on ZmHXK7

ZmHXK6Δ30 [4] = target: T2, ZmHXK6Δ30; experiment: coupled pyruvate kinase/lactate dehydrogenase NADH assay, A340; conditions: read-out: Substrate / Mannose; 2 mM ATP, 2 mM MgCl2, pH 8.0
From the text: coupled pyruvate kinase/lactate dehydrogenase NADH assay, A340 on ZmHXK6Δ30

ZmHXK4Δ30 [5] = target: T3, ZmHXK4Δ30; experiment: as above; conditions: read-out: Substrate / Mannose; 2 mM ATP, 2 mM MgCl2, pH 8.0
From the text: coupled pyruvate kinase/lactate dehydrogenase NADH assay, A340 on ZmHXK4Δ30

ZmHXK5Δ30 [6] = target: T1, ZmHXK5Δ30; experiment: as above; conditions: read-out: Substrate / Mannose; 2 mM ATP, 2 mM MgCl2, pH 8.0
From the text: coupled pyruvate kinase/lactate dehydrogenase NADH assay, A340 on ZmHXK5Δ30

[7] = read-out: Substrate / ATP, 5 mM Glc
[8] = 5 mM Glc, 2 mM ATP, product inhibition, PEP/pyruvate kinase listed in the reaction medium, read-out: ADP
[9] = read-out: Substrate / Glucose, 2 mM ATP

Structure (SMILES): Nc1ncnc2c1ncn2[C@@H]1O[C@H](COP(=O)(O)OP(=O)(O)OP(=O)(O)O)[C@@H](O)[C@H]1O [ATP]
- Km (ZmHXK5Δ30 [1]; [7]): 136 ± 11.5 µM
- Km (ZmHXK6Δ30 [2]; [7]): 199 ± 12.8 µM
- Km (ZmHXK4Δ30 [3]; [7]): 135 ± 25.7 µM

Structure (SMILES): Nc1ncnc2c1ncn2[C@@H]1O[C@H](COP(=O)(O)OP(=O)(O)O)[C@@H](O)[C@H]1O [ADP]
- IC50 (ZmHXK5Δ30 [1]; [8]): 690 ± 150 µM
- IC50 (ZmHXK6Δ30 [2]; [8]): 720 ± 140 µM
- IC50 (ZmHXK4Δ30 [3]; [8]): 710 ± 150 µM
- IC50 (ZmHXK8): 3120 ± 1140 µM
- IC50 (ZmHXK7): 6470 ± 1140 µM

Structure (SMILES): OC[C@H]1OC(O)[C@H](O)[C@@H](O)[C@@H]1O (some centres unmarked) [glucose]
- Km (ZmHXK5Δ30 [1]; [9]): 137 ± 20 µM
- Km (ZmHXK6Δ30 [2]; [9]): 65.9 ± 15.2 µM
- Km (ZmHXK4Δ30 [3]; [9]): 196 ± 32 µM

Structure (SMILES): OC[C@H]1OC(O)[C@@H](O)[C@@H](O)[C@@H]1O (some centres unmarked) [mannose]
- Km (ZmHXK6Δ30 [4]): 48.9 ± 1.06 µM
- Km (ZmHXK4Δ30 [5]): 139 ± 22.4 µM
- Km (ZmHXK5Δ30 [6]): 120 ± 33.3 µM
